Measured values taken from ChEMBL document CHEMBL1143618, “Discovery of a beta-MSH-derived MC-4R selective agonist” (J Med Chem, 2005).

What was measured:
Melanocortin receptor 4 [1] = target: T1, Melanocortin receptor 4 (Homo sapiens, UniProt P32245); test: Inhibition of [125I]NDP-alpha-MSH binding to melanocortin-4 receptor expressed in HEK293 cells; type: cell-based
Melanocortin receptor 4 [2] = target: T1, Melanocortin receptor 4; test: Agonist activity at human Melanocortin-4 receptor as peptide required for 50% maximal cAMP release (n > or =2); type: functional
Melanocortin receptor 3 [3] = target: T2, Melanocortin receptor 3 (Homo sapiens, UniProt P41968); test: Inhibition of [125I]-NDP-alpha-MSH binding to melanocortin-3 receptor expressed in HEK293 cells; type: cell-based
Melanocortin receptor 5 = Melanocortin receptor 5 (Homo sapiens, UniProt P33032); test: Inhibition of [125I]NDP-alpha-MSH binding to melanocortin-5 receptor expressed in HEK293 cells; type: cell-based
[4] = target: Melanocyte-stimulating hormone receptor (Homo sapiens, UniProt Q01726); test: Inhibition of [125I]NDP-alpha-MSH binding to melanocortin-1 receptor expressed in HEK293 cells; type: cell-based
Melanocortin receptor 4 [5] = target: Melanocortin receptor 4 (Rattus norvegicus, UniProt P70596); test: Binding affinity for rat melanocortin-4 receptor
Melanocortin receptor 3 [6] = target: T2, Melanocortin receptor 3; test: Agonist activity at human Melanocortin-3 receptor as peptide required for 50% maximal cAMP release; type: functional

Sequence of Melanocortin receptor 5 (P33032 whole entry): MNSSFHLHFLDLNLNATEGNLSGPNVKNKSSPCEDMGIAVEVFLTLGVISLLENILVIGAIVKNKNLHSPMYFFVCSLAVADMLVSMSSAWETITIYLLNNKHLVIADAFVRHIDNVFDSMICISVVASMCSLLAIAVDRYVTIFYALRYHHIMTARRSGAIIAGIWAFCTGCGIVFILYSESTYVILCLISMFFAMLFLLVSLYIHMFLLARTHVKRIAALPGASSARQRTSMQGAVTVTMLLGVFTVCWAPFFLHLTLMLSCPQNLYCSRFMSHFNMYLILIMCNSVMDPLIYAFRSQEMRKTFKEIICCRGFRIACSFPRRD
T2 sequence (P41968 whole entry): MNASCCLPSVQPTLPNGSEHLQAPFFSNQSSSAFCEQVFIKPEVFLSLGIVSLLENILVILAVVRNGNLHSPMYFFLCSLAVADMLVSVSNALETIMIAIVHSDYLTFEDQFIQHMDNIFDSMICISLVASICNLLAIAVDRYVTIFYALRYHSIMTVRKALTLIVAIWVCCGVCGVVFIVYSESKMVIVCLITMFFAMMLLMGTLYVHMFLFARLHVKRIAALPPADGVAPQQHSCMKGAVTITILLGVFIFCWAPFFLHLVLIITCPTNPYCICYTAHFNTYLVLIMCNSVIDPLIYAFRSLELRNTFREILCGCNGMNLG
T1 sequence (P32245 whole entry): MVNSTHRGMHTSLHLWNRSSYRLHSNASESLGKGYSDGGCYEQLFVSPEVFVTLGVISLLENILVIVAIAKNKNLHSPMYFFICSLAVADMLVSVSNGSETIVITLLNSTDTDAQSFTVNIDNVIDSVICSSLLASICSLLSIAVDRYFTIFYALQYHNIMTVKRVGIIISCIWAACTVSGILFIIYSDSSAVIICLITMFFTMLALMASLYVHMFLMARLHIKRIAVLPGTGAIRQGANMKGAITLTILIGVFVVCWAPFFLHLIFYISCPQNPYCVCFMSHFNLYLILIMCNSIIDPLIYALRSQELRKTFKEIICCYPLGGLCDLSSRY
Sequence of Melanocyte-stimulating hormone receptor (Q01726 whole entry): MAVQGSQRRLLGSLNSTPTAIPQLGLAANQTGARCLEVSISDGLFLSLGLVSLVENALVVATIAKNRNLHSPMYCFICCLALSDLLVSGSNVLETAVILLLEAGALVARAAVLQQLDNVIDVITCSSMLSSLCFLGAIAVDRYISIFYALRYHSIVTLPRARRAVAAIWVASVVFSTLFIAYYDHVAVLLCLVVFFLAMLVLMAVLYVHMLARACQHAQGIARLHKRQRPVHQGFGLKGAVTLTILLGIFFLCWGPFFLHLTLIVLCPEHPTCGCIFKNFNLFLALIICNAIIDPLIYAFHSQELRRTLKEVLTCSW
Sequence of Melanocortin receptor 4 (Rattus norvegicus, UniProt P70596) (P70596 whole entry): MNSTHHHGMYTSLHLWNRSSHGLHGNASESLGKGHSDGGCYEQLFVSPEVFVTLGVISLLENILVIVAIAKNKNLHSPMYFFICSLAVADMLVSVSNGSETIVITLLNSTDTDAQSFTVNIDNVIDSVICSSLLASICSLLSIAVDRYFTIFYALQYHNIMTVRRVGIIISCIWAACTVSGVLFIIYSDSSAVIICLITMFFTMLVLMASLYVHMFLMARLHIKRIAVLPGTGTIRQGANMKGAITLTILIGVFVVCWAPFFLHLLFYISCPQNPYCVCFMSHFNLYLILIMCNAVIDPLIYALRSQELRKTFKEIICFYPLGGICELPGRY

Row | Ki (Melanocortin receptor 4 [1]) | EC50 (Melanocortin receptor 4 [2]) | Ki (Melanocortin receptor 3 [3]) | Ki (Melanocortin receptor 5) | Ki [4] | Ki (Melanocortin receptor 4 [5]) | EC50 (Melanocortin receptor 3 [6]) | Compound
1 | 0.52 nM | 0.24 nM | 7.91 nM | > 500 nM | 0.57 nM | – | – | CC(=O)N[C@@H](Cc1ccc(O)cc1)C(=O)N[C@@H](CCCN=C(N)N)C(=O)N[C@H]1CSSC[C@@H](C(=O)N[C@@H](CO)C(=O)N2CCC[C@H]2C(=O)N2CCC[C@H]2C(=O)N[C@@H](CCCCN)C(=O)N[C@@H](CC(=O)O)C(N)=O)NC(=O)[C@H](Cc2c[nH]c3ccccc23)NC(=O)[C@H](CCCN=C(N)N)NC(=O)[C@@H](Cc2ccccc2)NC(=O)[C@H](Cc2c[nH]cn2)NC(=O)[C@H](CCC(=O)O)NC1=O
2 | 6.6 nM | 0.54 nM | > 500 nM | > 500 nM | > 500 nM | – | – | CC(=O)N[C@@H](Cc1ccc(O)cc1)C(=O)N[C@@H](CCCNC(=N)N)C(=O)N[C@H]1CSSC[C@@H](C(N)=O)NC(=O)[C@H](Cc2c[nH]c3ccccc23)NC(=O)[C@H](CCCNC(=N)N)NC(=O)[C@@H](Cc2ccccc2)NC(=O)[C@H](Cc2cncn2C)NC(=O)[C@H](CCC(=O)O)NC1=O
3 | 0.77 nM | 0.27 nM | – | > 500 nM | 17.1 nM | 0.52 nM | – | CC(=O)N[C@@H](Cc1ccc(O)cc1)C(=O)N[C@@H](CCCNC(=N)N)C(=O)N[C@H]1CSSC[C@@H](C(N)=O)NC(=O)[C@H](Cc2c[nH]c3ccccc23)NC(=O)[C@H](CCCNC(=N)N)NC(=O)[C@@H](Cc2ccccc2)NC(=O)[C@H](Cc2c[nH]cn2)NC(=O)[C@H](CCC(=O)O)NC1=O
4 | 0.55 nM | 0.16 nM | 1.44 nM | 0.84 nM | 0.21 nM | – | – | CSCC[C@H](NC(=O)[C@H](CCCNC(=N)N)NC(=O)[C@H](Cc1ccc(O)cc1)NC(C)=O)C(=O)N[C@@H](CCC(=O)O)C(=O)N[C@@H](Cc1cnc[nH]1)C(=O)N[C@H](Cc1ccccc1)C(=O)N[C@@H](CCCNC(=N)N)C(=O)N[C@@H](Cc1c[nH]c2ccccc12)C(=O)NCC(N)=O
5 | – | – | 56.8 nM | > 500 nM | 16.8 nM | 0.39 nM | 1.61 nM | CC(=O)N[C@H](CCCNC(=N)N)C(=O)N[C@H]1CSSC[C@@H](C(N)=O)NC(=O)[C@H](Cc2c[nH]c3ccccc23)NC(=O)[C@H](CCCNC(=N)N)NC(=O)[C@@H](Cc2ccccc2)NC(=O)[C@H](Cc2c[nH]cn2)NC(=O)[C@H](CCC(=O)O)NC1=O
6 | – | – | – | > 500 nM | 67.1 nM | – | – | CC(=O)N[C@H]1CSSC[C@@H](C(N)=O)NC(=O)[C@H](Cc2c[nH]c3ccccc23)NC(=O)[C@H](CCCNC(=N)N)NC(=O)[C@@H](Cc2ccccc2)NC(=O)[C@H](Cc2c[nH]cn2)NC(=O)[C@H](CCC(=O)O)NC1=O
7 | 0.28 nM | 0.12 nM | 15.9 nM | 239 nM | 9.91 nM | – | – | CC(=O)N[C@@H](Cc1ccc(O)cc1)C(=O)N[C@@H](CCCNC(=N)N)C(=O)N[C@H]1CSSC[C@@H](C(N)=O)NC(=O)[C@H](Cc2c[nH]c3ccccc23)NC(=O)[C@H](CCCNC(=N)N)NC(=O)[C@@H](Cc2ccc(F)cc2)NC(=O)[C@H](Cc2c[nH]cn2)NC(=O)[C@H](CCC(=O)O)NC1=O
8 | – | – | 33.8 nM | > 500 nM | 10.3 nM | – | 0.68 nM | CC(=O)N[C@@H](CCCNC(=N)N)C(=O)N[C@H]1CSSC[C@@H](C(N)=O)NC(=O)[C@H](Cc2c[nH]c3ccccc23)NC(=O)[C@H](CCCNC(=N)N)NC(=O)[C@@H](Cc2ccccc2)NC(=O)[C@H](Cc2c[nH]cn2)NC(=O)[C@H](CCC(=O)O)NC1=O
9 | 30.5 nM | 5.24 nM | > 500 nM | > 500 nM | 147 nM | – | – | CC(=O)N[C@@H](Cc1ccc(O)cc1)C(=O)N[C@@H](CCCN=C(N)N)C(=O)N[C@H]1CSSC[C@@H](C(N)=O)NC(=O)[C@H](Cc2c[nH]c3ccccc23)NC(=O)[C@H](CCCN=C(N)N)NC(=O)[C@H](Cc2ccccc2)NC(=O)[C@H](Cc2c[nH]cn2)NC(=O)[C@H](CCC(=O)O)NC1=O
10 | 2.54 nM | 0.79 nM | 313 nM | > 500 nM | 49.4 nM | – | – | CC(=O)N[C@@H](Cc1ccc(O)cc1)C(=O)N[C@@H](CCCNC(N)=O)C(=O)N[C@H]1CSSC[C@@H](C(N)=O)NC(=O)[C@H](Cc2c[nH]c3ccccc23)NC(=O)[C@H](CCCNC(=N)N)NC(=O)[C@@H](Cc2ccccc2)NC(=O)[C@H](Cc2c[nH]cn2)NC(=O)[C@H](CCC(=O)O)NC1=O
11 | 1.22 nM | 0.1 nM | – | > 500 nM | 15.8 nM | – | – | CC(=O)N[C@@H](Cc1ccc(O)cc1)C(=O)N[C@@H](CCCCN)C(=O)N[C@H]1CSSC[C@@H](C(N)=O)NC(=O)[C@H](Cc2c[nH]c3ccccc23)NC(=O)[C@H](CCCNC(=N)N)NC(=O)[C@@H](Cc2ccccc2)NC(=O)[C@H](Cc2c[nH]cn2)NC(=O)[C@H](CCC(=O)O)NC1=O
12 | 0.3 nM | 0.65 nM | 6.84 nM | 37.8 nM | 121 nM | – | – | CC(=O)N[C@@H](Cc1ccc(O)cc1)C(=O)N[C@@H](CCCN=C(N)N)C(=O)N[C@H]1CSSC[C@@H](C(N)=O)NC(=O)[C@H](Cc2c[nH]c3ccccc23)NC(=O)[C@H](CCCN=C(N)N)NC(=O)[C@@H](Cc2ccc3ccccc3c2)NC(=O)[C@H](Cc2c[nH]cn2)NC(=O)[C@H](CCC(=O)O)NC1=O
13 | – | – | 10.6 nM | 76.9 nM | 0.89 nM | – | – | CSCC[C@H](NC(=O)[C@H](CCCN=C(N)N)NC(=O)[C@H](Cc1ccc(O)cc1)NC(=O)[C@@H]1CCCN1C(=O)CNC(=O)[C@H](CCC(=O)O)NC(=O)[C@H](CC(=O)O)NC(=O)[C@H](CCCCN)NC(=O)[C@H](CCCCN)NC(=O)[C@H](CCC(=O)O)NC(=O)[C@H](C)N)C(=O)N[C@@H](CCC(=O)O)C(=O)N[C@@H](Cc1c[nH]cn1)C(=O)N[C@@H](Cc1ccccc1)C(=O)N[C@@H](CCCN=C(N)N)C(=O)N[C@@H](Cc1c[nH]c2ccccc12)C(=O)NCC(=O)N[C@@H](CO)C(=O)N1CCC[C@H]1C(=O)N1CCC[C@H]1C(=O)N[C@@H](CCCCN)C(=O)N[C@@H](CC(=O)O)C(=O)O
14 | 0.27 nM | 0.56 nM | 0.11 nM | 0.26 nM | 0.09 nM | – | – | CSCC[C@H](NC(=O)[C@H](CCCNC(=N)N)NC(=O)[C@H](Cc1ccc(O)cc1)NC(C)=O)C(=O)N[C@@H](CCC(=O)O)C(=O)N[C@@H](Cc1cnc[nH]1)C(=O)N[C@H](Cc1ccccc1)C(=O)N[C@@H](CCCNC(=N)N)C(=O)N[C@@H](Cc1c[nH]c2ccccc12)C(=O)NCC(=O)N[C@@H](CO)C(=O)N1CCC[C@H]1C(=O)N1CCC[C@H]1C(=O)N[C@@H](CCCCN)C(=O)N[C@@H](CC(=O)O)C(N)=O
15 | 0.14 nM | 0.06 nM | 3.12 nM | 42.2 nM | 8.22 nM | – | – | CC(=O)N[C@@H](Cc1ccc(O)cc1)C(=O)N[C@@H](CCCNC(=N)N)C(=O)N[C@H]1CSSC[C@@H](C(N)=O)NC(=O)[C@H](Cc2c[nH]c3ccccc23)NC(=O)[C@H](CCCNC(=N)N)NC(=O)[C@@H](Cc2ccc(Cl)cc2)NC(=O)[C@H](Cc2c[nH]cn2)NC(=O)[C@H](CCC(=O)O)NC1=O
16 | 13.2 nM | 0.92 nM | 166 nM | 62.1 nM | 2.73 nM | – | – | CSC[C@H](NC(=O)[C@H](Cc1c[nH]c2ccccc12)NC(=O)[C@H](CCCNC(=N)N)NC(=O)[C@@H](Cc1ccccc1)NC(=O)[C@H](Cc1cnc[nH]1)NC(=O)[C@H](CCC(=O)O)NC(=O)[C@H](CSC)NC(=O)[C@H](CCCNC(=N)N)NC(=O)[C@H](Cc1ccc(O)cc1)NC(C)=O)C(N)=O
17 | 5.28 nM | 0.67 nM | 9.23 nM | 24.8 nM | 0.51 nM | – | – | H-GPYRMEHFRWGSPPKD-NH2
